Experimental data: ChEMBL document CHEMBL3784918, “Novel 2,4-diaminopyrimidines bearing tetrahydronaphthalenyl moiety against anaplastic lymphoma kinase (ALK): Synthesis, in vitro, ex vivo, and in vivo efficacy studies” (Bioorg Med Chem Lett, 2016)
Activity calls are given as the source filed them. The calls are words filed in the database; no cut-off is given here.

Assays:
[1] = Tmax in cannulated Sprague Dawley rat at 10 mg/kg administered through oral gavage by LC/MS/MS analysis; type: ADME, organism-based; details: in vivo
[2] = target: CYP1A2 (Homo sapiens, UniProt P05177); test: Inhibition of CYP1A2 (unknown origin) at 10 uM; type: ADME
[3] = target: CYP2C9 (Homo sapiens, UniProt P11712); test: Inhibition of CYP2C9 (unknown origin) at 10 uM; type: ADME
[4] = target: CYP2D6 (Homo sapiens, UniProt P10635); test: Inhibition of CYP2D6 (unknown origin) at 10 uM; type: ADME
[5] = target: CYP3A4 (Homo sapiens, UniProt P08684); test: Inhibition of CYP3A4 (unknown origin) at 10 uM; type: ADME
[6] = target: CYP2C19 (Homo sapiens, UniProt P33261); test: Inhibition of CYP2C19 (unknown origin) at 10 uM; type: ADME
[7] = Cmax in cannulated Sprague Dawley rat at 10 mg/kg administered through oral gavage by LC/MS/MS analysis; type: ADME, organism-based; design: dose 10 mg/kg, route oral; details: in vivo
[8] = Half life in cannulated Sprague Dawley rat at 10 mg/kg administered through oral gavage by LC/MS/MS analysis; type: ADME, organism-based; details: in vivo
[9] = AUCt in cannulated Sprague Dawley rat at 10 mg/kg administered through oral gavage by LC/MS/MS analysis; type: ADME, organism-based; details: in vivo
[10] = AUCinfinity in cannulated Sprague Dawley rat at 10 mg/kg administered through oral gavage by LC/MS/MS analysis; type: ADME, organism-based; design: dose 10 mg/kg, time infinity, route oral; details: in vivo
[11] = tested on: NCI-H3122; test: Antitumor activity against human NCI-H3122 cells xenografted in SCID mouse assessed as tumor growth inhibition at 50 mg/kg, po administered qd for 14 days; type: functional, organism-based
[12] = tested on: NCI-H3122; test: Antitumor activity against human NCI-H3122 cells xenografted in SCID mouse assessed as tumor growth inhibition at 25 mg/kg, po administered qd for 14 days; type: functional, organism-based
[13] = target: Focal adhesion kinase 1 (Homo sapiens) (UniProt Q05397); test: Inhibition of human FAK at 1 uM after 30 mins by fluorescence assay in presence of ATP
[14] = target: Insulin receptor (Homo sapiens) (UniProt P06213); test: Inhibition of human IR at 1 uM after 30 mins by fluorescence assay in presence of ATP
[15] = target: Activated CDC42 kinase 1 (Homo sapiens) (UniProt Q07912); test: Inhibition of human ACK1 at 1 uM after 30 mins by fluorescence assay in presence of ATP
[16] = target: Fibroblast growth factor receptor 1 (Homo sapiens) (UniProt P11362); test: Inhibition of human FGFR1 at 1 uM after 30 mins by fluorescence assay in presence of ATP
Fibroblast growth factor receptor 1 (Homo sapiens), sequence (P11362 22-822 limits assumed): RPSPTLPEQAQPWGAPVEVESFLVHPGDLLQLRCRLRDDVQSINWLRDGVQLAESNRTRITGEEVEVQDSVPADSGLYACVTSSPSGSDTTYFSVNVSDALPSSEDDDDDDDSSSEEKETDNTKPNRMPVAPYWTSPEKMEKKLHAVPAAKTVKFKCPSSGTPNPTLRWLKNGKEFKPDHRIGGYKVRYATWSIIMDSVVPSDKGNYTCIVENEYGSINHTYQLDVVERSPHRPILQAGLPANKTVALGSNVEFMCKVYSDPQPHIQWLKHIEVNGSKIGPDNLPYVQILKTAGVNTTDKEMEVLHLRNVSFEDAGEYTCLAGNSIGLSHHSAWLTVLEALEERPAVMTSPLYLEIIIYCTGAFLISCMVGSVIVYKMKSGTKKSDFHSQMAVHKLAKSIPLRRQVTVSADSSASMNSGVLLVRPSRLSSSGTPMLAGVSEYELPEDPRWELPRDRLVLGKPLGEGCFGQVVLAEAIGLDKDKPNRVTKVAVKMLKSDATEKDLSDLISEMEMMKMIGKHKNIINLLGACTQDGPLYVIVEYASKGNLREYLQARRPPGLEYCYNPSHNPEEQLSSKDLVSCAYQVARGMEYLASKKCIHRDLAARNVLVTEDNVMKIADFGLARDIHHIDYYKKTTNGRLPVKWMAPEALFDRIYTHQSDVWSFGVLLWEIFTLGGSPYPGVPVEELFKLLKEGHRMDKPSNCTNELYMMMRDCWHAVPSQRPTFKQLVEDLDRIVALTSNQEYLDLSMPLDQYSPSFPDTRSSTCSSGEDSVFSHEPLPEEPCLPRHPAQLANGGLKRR

[17] = target: Receptor-type tyrosine-protein kinase FLT3 (Homo sapiens) (UniProt P36888); test: Inhibition of human FLT3 at 1 uM after 30 mins by fluorescence assay in presence of ATP
[18] = target: Tyrosine-protein kinase Mer (Homo sapiens) (UniProt Q12866); test: Inhibition of human MER at 1 uM after 30 mins by fluorescence assay in presence of ATP
[19] = target: Ribosomal protein S6 kinase alpha-1 (Homo sapiens) (UniProt Q15418); test: Inhibition of human RSK1 at 1 uM after 30 mins by fluorescence assay in presence of ATP
[20] = target: T1, ALK tyrosine kinase receptor (Homo sapiens, UniProt Q9UM73); test: Inhibition of human ALK at 1 uM after 30 mins by fluorescence assay in presence of ATP
Target sequence in this assay (Q9UM73 19-1620 limits assumed): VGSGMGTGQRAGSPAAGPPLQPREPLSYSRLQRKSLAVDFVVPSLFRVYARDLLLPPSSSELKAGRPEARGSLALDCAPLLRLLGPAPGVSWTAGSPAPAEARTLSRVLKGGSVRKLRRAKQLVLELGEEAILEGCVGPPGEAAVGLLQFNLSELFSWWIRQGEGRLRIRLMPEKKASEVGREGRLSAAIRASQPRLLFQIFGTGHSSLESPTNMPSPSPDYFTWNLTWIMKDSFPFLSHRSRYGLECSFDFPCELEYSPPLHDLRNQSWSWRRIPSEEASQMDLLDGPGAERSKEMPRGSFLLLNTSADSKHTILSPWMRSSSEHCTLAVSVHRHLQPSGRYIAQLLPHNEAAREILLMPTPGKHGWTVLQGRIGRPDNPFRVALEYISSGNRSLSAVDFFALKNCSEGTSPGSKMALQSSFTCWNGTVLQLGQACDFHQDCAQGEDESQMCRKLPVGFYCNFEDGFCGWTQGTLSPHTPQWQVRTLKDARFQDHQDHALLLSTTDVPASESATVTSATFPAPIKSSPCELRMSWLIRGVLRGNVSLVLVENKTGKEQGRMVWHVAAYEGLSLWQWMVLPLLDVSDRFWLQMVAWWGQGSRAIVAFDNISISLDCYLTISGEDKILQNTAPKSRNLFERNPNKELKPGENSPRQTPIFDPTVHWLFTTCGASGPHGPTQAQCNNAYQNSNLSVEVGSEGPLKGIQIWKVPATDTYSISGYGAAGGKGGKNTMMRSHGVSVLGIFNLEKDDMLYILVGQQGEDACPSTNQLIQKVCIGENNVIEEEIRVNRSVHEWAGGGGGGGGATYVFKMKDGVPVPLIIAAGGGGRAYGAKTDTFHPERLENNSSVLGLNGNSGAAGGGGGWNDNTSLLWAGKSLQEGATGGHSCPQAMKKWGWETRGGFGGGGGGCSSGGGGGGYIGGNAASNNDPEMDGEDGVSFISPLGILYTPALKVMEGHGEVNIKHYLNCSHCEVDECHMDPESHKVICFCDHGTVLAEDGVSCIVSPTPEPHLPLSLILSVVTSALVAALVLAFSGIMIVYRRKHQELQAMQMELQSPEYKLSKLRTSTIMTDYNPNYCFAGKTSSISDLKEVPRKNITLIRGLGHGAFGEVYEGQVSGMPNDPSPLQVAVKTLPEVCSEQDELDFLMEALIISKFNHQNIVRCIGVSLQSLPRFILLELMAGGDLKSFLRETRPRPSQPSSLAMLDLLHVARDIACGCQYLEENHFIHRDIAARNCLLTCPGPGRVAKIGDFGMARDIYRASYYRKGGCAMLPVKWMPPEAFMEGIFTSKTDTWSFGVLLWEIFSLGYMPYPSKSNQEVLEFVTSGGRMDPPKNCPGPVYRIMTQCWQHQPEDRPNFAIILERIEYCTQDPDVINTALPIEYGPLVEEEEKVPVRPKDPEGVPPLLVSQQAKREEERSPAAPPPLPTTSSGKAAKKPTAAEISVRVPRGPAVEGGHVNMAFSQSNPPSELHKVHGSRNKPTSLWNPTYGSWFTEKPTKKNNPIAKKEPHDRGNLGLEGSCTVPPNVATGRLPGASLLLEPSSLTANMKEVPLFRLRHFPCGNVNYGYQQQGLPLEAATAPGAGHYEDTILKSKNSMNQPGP

[21] = target: Insulin-like growth factor 1 receptor (Homo sapiens) (UniProt P08069); test: Inhibition of human IGF1R at 1 uM after 30 mins by fluorescence assay in presence of ATP
[22] = target: Aurora kinase A (Homo sapiens) (UniProt O14965); test: Inhibition of human Aurora A at 1 uM after 30 mins by fluorescence assay in presence of ATP
Aurora kinase A (Homo sapiens), sequence (O14965 whole entry): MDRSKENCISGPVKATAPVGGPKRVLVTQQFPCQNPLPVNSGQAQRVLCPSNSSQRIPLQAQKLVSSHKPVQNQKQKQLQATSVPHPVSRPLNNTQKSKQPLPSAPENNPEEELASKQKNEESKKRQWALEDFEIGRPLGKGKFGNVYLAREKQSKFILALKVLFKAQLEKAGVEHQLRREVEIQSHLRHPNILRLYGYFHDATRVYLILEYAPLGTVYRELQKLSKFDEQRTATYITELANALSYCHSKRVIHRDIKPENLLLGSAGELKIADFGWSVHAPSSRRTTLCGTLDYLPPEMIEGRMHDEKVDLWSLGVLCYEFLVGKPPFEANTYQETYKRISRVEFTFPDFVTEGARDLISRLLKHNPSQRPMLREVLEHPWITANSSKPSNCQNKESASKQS

[23] = target: Serine/threonine-protein kinase Chk2 (Homo sapiens) (UniProt O96017); test: Inhibition of human CHK2 at 1 uM after 30 mins by fluorescence assay in presence of ATP
Serine/threonine-protein kinase Chk2 (Homo sapiens), sequence (O96017 whole entry): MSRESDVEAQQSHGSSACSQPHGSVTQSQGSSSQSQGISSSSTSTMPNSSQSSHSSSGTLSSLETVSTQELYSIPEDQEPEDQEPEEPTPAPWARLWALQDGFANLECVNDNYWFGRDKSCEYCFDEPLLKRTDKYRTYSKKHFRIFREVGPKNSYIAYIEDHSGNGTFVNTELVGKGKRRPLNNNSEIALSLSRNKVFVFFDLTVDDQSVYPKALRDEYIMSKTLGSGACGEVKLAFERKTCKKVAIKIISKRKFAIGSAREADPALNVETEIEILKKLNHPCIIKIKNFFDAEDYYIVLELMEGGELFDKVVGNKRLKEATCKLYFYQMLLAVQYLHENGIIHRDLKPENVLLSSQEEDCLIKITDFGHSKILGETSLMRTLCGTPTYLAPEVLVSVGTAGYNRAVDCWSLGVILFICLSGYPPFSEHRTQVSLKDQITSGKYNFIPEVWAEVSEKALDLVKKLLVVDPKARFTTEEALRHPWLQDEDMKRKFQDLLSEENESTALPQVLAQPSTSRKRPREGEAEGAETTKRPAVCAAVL

[24] = target: Epidermal growth factor receptor (Homo sapiens) (UniProt P00533); test: Inhibition of human EGFR at 1 uM after 30 mins by fluorescence assay in presence of ATP
[25] = target: Protein-tyrosine kinase 2-beta (Homo sapiens) (UniProt Q14289); test: Inhibition of human PYK2 at 1 uM after 30 mins by fluorescence assay in presence of ATP
[26] = target: Aurora kinase B (Homo sapiens) (UniProt Q96GD4); test: Inhibition of human Aurora B at 1 uM after 30 mins by fluorescence assay in presence of ATP
[27] = target: Tyrosine-protein kinase receptor UFO (Homo sapiens) (UniProt P30530); test: Inhibition of human AXL at 1 uM after 30 mins by fluorescence assay in presence of ATP
[28] = target: NUAK family SNF1-like kinase 1 (Homo sapiens) (UniProt O60285); test: Inhibition of human ARK5 at 1 uM after 30 mins by fluorescence assay in presence of ATP
[29] = target: Serine/threonine-protein kinase 10 (Homo sapiens) (UniProt O94804); test: Inhibition of human LOK at 1 uM after 30 mins by fluorescence assay in presence of ATP
[30] = target: Proto-oncogene tyrosine-protein kinase ROS (Homo sapiens) (UniProt P08922); test: Inhibition of human ROS at 1 uM after 30 mins by fluorescence assay in presence of ATP
[31] = target: Serine/threonine-protein kinase TAO1 (Homo sapiens) (UniProt Q7L7X3); test: Inhibition of human TAO1 at 1 uM after 30 mins by fluorescence assay in presence of ATP
[32] = target: Testis-specific serine/threonine-protein kinase 1 (Homo sapiens) (UniProt Q9BXA7); test: Inhibition of human TSSK1 at 1 uM after 30 mins by fluorescence assay in presence of ATP
Testis-specific serine/threonine-protein kinase 1 (Homo sapiens), sequence (Q9BXA7 whole entry): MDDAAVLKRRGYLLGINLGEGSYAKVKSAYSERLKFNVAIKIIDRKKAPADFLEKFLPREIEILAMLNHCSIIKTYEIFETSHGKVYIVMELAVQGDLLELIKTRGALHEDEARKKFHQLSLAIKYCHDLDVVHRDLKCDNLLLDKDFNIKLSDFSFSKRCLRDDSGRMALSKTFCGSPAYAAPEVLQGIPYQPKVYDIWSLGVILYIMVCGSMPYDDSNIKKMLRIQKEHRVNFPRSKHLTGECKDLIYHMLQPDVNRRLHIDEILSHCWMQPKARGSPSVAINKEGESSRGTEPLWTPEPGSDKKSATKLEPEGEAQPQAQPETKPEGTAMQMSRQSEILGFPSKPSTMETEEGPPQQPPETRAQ

[33] = target: High affinity nerve growth factor receptor (Homo sapiens) (UniProt P04629); test: Inhibition of human TRKA at 1 uM after 30 mins by fluorescence assay in presence of ATP
[34] = target: Tyrosine-protein kinase Yes (Homo sapiens) (UniProt P07947); test: Inhibition of human YES at 1 uM after 30 mins by fluorescence assay in presence of ATP
[35] = target: Serine/threonine-protein kinase N2 (Homo sapiens) (UniProt Q16513); test: Inhibition of human PRK2 at 1 uM after 30 mins by fluorescence assay in presence of ATP
[36] = target: Ephrin type-B receptor 1 (Homo sapiens) (UniProt P54762); test: Inhibition of human EPHB1 at 1 uM after 30 mins by fluorescence assay in presence of ATP
[37] = target: Rho-associated protein kinase 2 (Homo sapiens) (UniProt O75116); test: Inhibition of human ROCK2 at 1 uM after 30 mins by fluorescence assay in presence of ATP
[38] = target: Ephrin type-A receptor 1 (Homo sapiens) (UniProt P21709); test: Inhibition of human EPHA1 at 1 uM after 30 mins by fluorescence assay in presence of ATP
[39] = tested on: Mus musculus; test: Toxicity in SCID mouse xenografted with human H3122 cells assessed as change in body weight at 25 mg/kg, po administered qd for 14 days measured during compound dosing; type: organism-based; details: in vivo, 336 h
[40] = tested on: Mus musculus; test: Toxicity in SCID mouse xenografted with human H3122 cells assessed as change in body weight at 50 mg/kg, po administered qd for 14 days measured during compound dosing; type: organism-based; details: in vivo, 336 h
[41] = target: T1, ALK tyrosine kinase receptor; test: Inhibition of wild type ALK (unknown origin) after 30 mins by HTRF assay
[42] = target: ALK tyrosine kinase receptor (Homo sapiens, UniProt Q9UM73, L1196M); test: Inhibition of ALK L1196M mutant (unknown origin) after 30 mins by HTRF assay
ALK tyrosine kinase receptor (Homo sapiens, UniProt Q9UM73, L1196M), sequence (Q9UM73 19-1620 L1196M limits assumed): as the sequence (Q9UM73 19-1620 limits assumed) above, with L1178M counted along it

[43] = target: EML4-ALK (Homo sapiens) (UniProt Q9UM73+Q9HC35); test: Inhibition of EML4-ALK in human NCI-H3122 cells assessed as inhibition of cell proliferation after 72 hrs by SRB assay; type: cell-based
EML4-ALK (Homo sapiens), sequence (Q9HC35 whole entry partner): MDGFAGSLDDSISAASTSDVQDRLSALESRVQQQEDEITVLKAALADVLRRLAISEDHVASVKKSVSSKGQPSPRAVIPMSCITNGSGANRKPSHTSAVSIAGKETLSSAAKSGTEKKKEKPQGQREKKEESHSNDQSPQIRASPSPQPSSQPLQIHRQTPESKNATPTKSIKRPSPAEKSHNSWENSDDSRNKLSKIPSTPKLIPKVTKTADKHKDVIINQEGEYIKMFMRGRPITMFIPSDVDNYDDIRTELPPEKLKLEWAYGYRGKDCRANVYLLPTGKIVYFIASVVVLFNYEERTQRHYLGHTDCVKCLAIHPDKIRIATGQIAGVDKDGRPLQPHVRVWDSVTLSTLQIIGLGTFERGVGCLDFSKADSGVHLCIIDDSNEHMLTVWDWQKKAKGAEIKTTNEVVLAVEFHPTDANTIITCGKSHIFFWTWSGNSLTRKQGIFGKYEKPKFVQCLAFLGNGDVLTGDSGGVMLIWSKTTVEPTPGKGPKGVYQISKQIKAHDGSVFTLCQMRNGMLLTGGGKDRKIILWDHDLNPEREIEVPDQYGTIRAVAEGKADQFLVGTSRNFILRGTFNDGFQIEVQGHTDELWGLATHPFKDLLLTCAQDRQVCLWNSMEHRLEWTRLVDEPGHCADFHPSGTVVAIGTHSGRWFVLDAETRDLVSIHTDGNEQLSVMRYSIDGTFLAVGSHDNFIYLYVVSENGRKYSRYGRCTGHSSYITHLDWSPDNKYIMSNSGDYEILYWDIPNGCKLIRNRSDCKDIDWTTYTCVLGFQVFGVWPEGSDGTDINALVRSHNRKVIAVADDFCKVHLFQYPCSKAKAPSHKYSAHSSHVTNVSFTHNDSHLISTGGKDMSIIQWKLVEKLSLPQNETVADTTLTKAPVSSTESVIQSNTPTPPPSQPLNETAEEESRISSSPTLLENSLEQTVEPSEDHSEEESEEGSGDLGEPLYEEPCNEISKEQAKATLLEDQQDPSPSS
EML4-ALK (Homo sapiens), sequence (Q9UM73 19-1620 limits assumed): as the sequence (Q9UM73 19-1620 limits assumed) above

[44] = tested on: BaF3; test: Inhibition of ALK L1196M mutant in mouse BA/F3 cells assessed as inhibition of cell proliferation after 72 hrs by WST1 assay; type: cell-based
[45] = Metabolic stability of the compound in human liver microsomes assessed as compound remaining at 1 uM after 30 mins by LC/MS/MS analysis in the presence of NADPH; type: ADME; details: read-out: Stability
[46] = Metabolic stability of the compound in mouse liver microsomes assessed as compound remaining at 1 uM after 30 mins by LC/MS/MS analysis in the presence of NADPH; type: ADME; details: read-out: Stability

Tmax [1]: 5.33 h
inhibition at 10 µM [2]: 9.5%
inhibition at 10 µM [3]: 38%
inhibition at 10 µM [4]: 31%
inhibition at 10 µM [5]: 97%
inhibition at 10 µM [6]: 72%
Cmax [7]: 582 ng/mL
half-life [8]: 570 min
AUC(0-t) [9]: 8750 ng·h/mL
AUC(0-inf) [10]: 10900 ng·h/mL
inhibition [13]: 100%
inhibition [14]: 100%
inhibition [15]: 100%
inhibition [16]: 100%
inhibition [17]: 100%
inhibition [18]: 100%
inhibition [19]: 100%
inhibition [20]: 100%
inhibition [21]: 100%
inhibition [22]: 99%
inhibition [23]: 99%
inhibition [24]: 99%
inhibition [25]: 98%
inhibition [26]: 97%
inhibition [27]: 97%
inhibition [28]: 96%
inhibition [29]: 96%
inhibition [30]: 96%
inhibition [31]: 96%
inhibition [32]: 96%
inhibition [33]: 95%
inhibition [34]: 95%
inhibition [35]: 93%
inhibition [36]: 92%
inhibition [37]: 92%
inhibition [38]: 91%
IC50 [41]: 0.7 nM
IC50 [42]: 1.5 nM
remaining at 0.5 h, 1 µM [45]: 56%
remaining at 0.5 h, 1 µM [46]: 23%
Compound: COc1cc2c(cc1Nc1ncc(Cl)c(Nc3ccccc3S(=O)(=O)C(C)C)n1)CCC(N)C2(C)C (stereo unspecified)
TGI [11]: Active
TGI [12]: Active
Activity [39]: Non-toxic
Activity [40]: Non-toxic
CC50 [43]: 16 nM
CC50 [44]: 62 nM
